Test results from US6875761B2 (Eisai Co., Ltd., priority 1997, dated 2005).
Where a name gives a salt, the structure may show the parent alone.

Legend:
serotonin 2 receptor = target: T1, serotonin 2 receptor (Rattus norvegicus, UniProt P14842); assay: Binding test on [3H] ketanserin, cerebral cortex receptor fraction; parameters: species or system SD rats; conditions: 0.3 nM [3H] ketanserin, 37° C. 15 min, read-out: 5HT2
T1 construct: To the receptor fraction of the cerebral cortex were added a test compound and 0.3 nM of [^3H] ketanserin; from tissue; host or cells: rat cerebral cortex membrane fraction

α1 adrenalin receptor = assay: Binding test on [3H] prazosin, cerebral cortex receptor fraction; parameters: species or system SD rats; conditions: rat cerebral cortex receptor fraction, about 0.2 nM [3H] prazosin, room temperature 60 min; read-out: α 1
Experimental: As radioisotope-labeled compounds, use was made of the following reagents (mfd. by NEN). • 3) [^3H] […] Prazosin.
(§1) Use was made of SD rats aged 6 to 8 weeks.
The rats were sacrificed by dcapitation to extirpate the cerebra.
Each mixture was homogenized by using a Teflon glass homogenizer and centrifuged as 1,000× g for 10 min. The supernatant thus obtained was further centrifuged at 20,000× g for 20 min. […] After centrifuging at 20,000× g for 20 min, the obtained precipitate was further suspended and centrifuged twice each in the same manner. […] This receptor fraction was stored at −80° C. until using.
IC50 was calculated by the probit method, while Ki was determined in accordance with the following formula: Ki=IC50(1+c/Kd) wherein c represents the concentration of the radioisotope-labeled compound, and Kd represents the dissociation constant of the radioisotope-labeled compound with respect to the receptor determined by Scatchard's analysis. (Binding test on [^3H] prazosin)
To the receptor fraction of the cerebral cortex were added a test compound and about 0.2 nM of [^3H] prazosin and the resultant mixture was incubated at room temperature for 60 min. Next, it was filtered through a glass filter with the use of a cell harvester. After washing the glass filter with 50 mM Tris hydrochloride (pH 7.4), the radioactivity of the receptor was measured with a liquid scintillation counter. The binding detected in the presence of 10 μM of phentolamine was referred to as the nonspecific binding.

serotonin 1A receptor = target: T2, serotonin 1A receptor (Rattus norvegicus, UniProt P19327); assay: Binding test on [3H] 8-hydroxy-dipropylaminotetralin, hippocampus receptor fraction; parameters: species or system SD rats; conditions: rat hippocampus receptor fraction, 0.5 nM [3H] 8-OH-DPAT, room temperature 30 min; read-out: 5HT1
T2 construct: To the receptor fraction of the hippocampus were added a test compound and 0.5 nM of [^3H]; 8-hydroxy-dipropylaminotetralin; from tissue; host or cells: rat hippocampus membrane fraction
T2 sequence (P19327 1-422): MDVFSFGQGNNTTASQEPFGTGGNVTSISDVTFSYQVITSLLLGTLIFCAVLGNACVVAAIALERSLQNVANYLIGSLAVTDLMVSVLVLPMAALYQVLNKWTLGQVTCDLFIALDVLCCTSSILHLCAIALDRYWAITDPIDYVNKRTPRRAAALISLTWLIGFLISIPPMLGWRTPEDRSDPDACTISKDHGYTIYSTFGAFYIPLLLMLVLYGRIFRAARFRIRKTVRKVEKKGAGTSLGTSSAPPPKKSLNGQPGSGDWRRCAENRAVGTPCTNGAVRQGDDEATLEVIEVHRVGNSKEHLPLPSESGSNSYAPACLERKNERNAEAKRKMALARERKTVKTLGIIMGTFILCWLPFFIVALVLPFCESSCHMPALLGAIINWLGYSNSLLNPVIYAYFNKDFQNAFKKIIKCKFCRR
Experimental: (1) Binding test on serotonin 1A, serotonin 2 and α1 adrenalin receptors
The following reagents were employed in this test. • 1) Serotonin binoxalate (5-HT binoxalate, mfd. by Sigma Chemical Co.). • 2) Methysergide maleate (mfd. by RBI).
As radioisotope-labeled compounds, use was made of the following reagents (mfd. by NEN). • 3) [^3H] 8-Hydroxy-dipropylaminotetralin (8-OH-DPAT). • 4) [^3H]
Methysergide maleate was dissolved in distilled water before using.
as §1
The rats were sacrificed by dcapitation to extirpate the cerebra. The hippocampus and cortex were separated therefrom and employed in the binding tests respectively on the serotonin 1A receptor and the serotonin 2 receptor.
The hippocampus was mixed with 50 times (on the wet weight basis) as much as 0.32 M sucrose solution while the cortex was mixed with 10 times as much the same solution. Each mixture was homogenized by using a Teflon glass homogenizer and centrifuged as 1,000× g for 10 min. The supernatant thus obtained was further centrifuged at 20,000× g for 20 min. The obtained precipitate was re-suspended in 50 times (based on the initial wet weight; in the case of the hippocampus) or 10 times (in the case of the cortex) as much a 50 Tris hydrochloride (pH 7.4) and incubated at room temperature for 30 min. After centrifuging at 20,000× g for 20 min, the obtained precipitate was further suspended and centrifuged twice each in the same manner. The precipitate thus obtained was suspended in 100 times (based on the initial wet weight; in the case of the hippocampus) or 20 times (in the case of the cortex) as much a 50 mM Tris hydrochloride solution (pH 7.4) to thereby give a receptor fraction. This receptor fraction was stored at −80° C. until using.
To the receptor fraction of the hippocampus were added a test compound and 0.5 nM of [^3H] 8-hydroxy-dipropylaminotetralin and the resultant mixture was incubated at room temperature for 30 min. Next, it was filtered through a glass filter with the use of a cell harvester. After washing the glass filter with 50 mM Tris hydrochloride (pH 7.4), the radioactivity of the receptor was measured with a liquid scintillation counter. The binding detected in the presence of 10 μM of serotonin binoxalate was referred to as the nonspecific binding.
IC50 was calculated by the probit method, while Ki was determined in accordance with the following formula: Ki=IC50(1+c/Kd) wherein c represents the concentration of the radioisotope-labeled compound, and Kd represents the dissociation constant of the radioisotope-labeled compound with respect to the receptor determined by Scatchard's analysis.

T1 sequence (P14842 whole entry): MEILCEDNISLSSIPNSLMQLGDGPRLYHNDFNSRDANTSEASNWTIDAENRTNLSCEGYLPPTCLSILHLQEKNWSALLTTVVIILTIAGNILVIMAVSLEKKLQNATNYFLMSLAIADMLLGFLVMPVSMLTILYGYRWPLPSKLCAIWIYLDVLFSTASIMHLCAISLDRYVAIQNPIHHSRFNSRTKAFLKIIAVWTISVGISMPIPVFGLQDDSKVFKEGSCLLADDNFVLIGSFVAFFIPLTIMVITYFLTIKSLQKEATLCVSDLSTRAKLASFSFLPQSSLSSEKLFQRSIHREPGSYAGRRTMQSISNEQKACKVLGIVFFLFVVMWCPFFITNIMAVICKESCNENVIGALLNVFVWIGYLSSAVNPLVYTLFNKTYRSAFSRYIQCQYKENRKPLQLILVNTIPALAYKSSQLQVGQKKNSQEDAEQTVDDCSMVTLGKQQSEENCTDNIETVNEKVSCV

| Compound | melting point | Ki (serotonin 2 receptor) [nM] | Ki (α1 adrenalin receptor) [nM] | Ki (serotonin 1A receptor) [nM] |
| --- | --- | --- | --- | --- |
| CCN1CCN(c2nc(-c3ccc(O)cc3)cc3ccccc23)CC1 [Example 7, 1-(4-ethylpiperazin-1-yl)-3-(4-hydroxyphenyl)isoquinoline] | 204 to 206 °C | 81.3 | 521 | 27.9 |
| CCCC(O)c1ccc(-c2cc3ccccc3c(N3CCN(CC)CC3)n2)cc1 (stereo not drawn) [Example 21, 1-(4-ethylpiperazin-1-yl)-3-[4-(1-hydroxybutyl)phenyl]isoquinoline oxalate] | – | 4.3 | 636 | 17.2 |
| CCN1CCN(c2nc(-c3ccc(CCC(C)O)cc3)cc3ccccc23)CC1 (stereo not drawn) [Example 22, 1-(4-ethylpiperazin-1-yl)-3-[4-(3-hydroxybutyl)phenyl]isoquinoline oxalate] | – | 1.5 | 3100 | 9.4 |
| CCN1CCN(c2nc(-c3ccc(CCCCO)cc3)cc3ccccc23)CC1 [Example 23, 3-[4-(4-hydroxybutyl)phenyl]-1-(4-ethylpiperazin-1-yl)isoquinoline hydrochloride] | – | 6.4 | 1250 | 16.8 |
| CCN1CCN(c2nc(-c3ccc(CCCO)c(F)c3)cc3ccccc23)CC1 [Example 29, hydrochloride] | – | 3.5 | 668 | 9.6 |
| CCN1CCN(c2nc(-c3ccc(CCCO)c(C#N)c3)cc3ccccc23)CC1 [Example 32, 3-[3-cyano-4-(3-hydroxypropyl)phenyl]-1-(4-ethylpiperazin-1-yl)isoquinoline hydrochloride] | – | 7.8 | 500 | 10.1 |
| CCN1CCN(c2nc(-c3ccc(CCCO)c(OC)c3)cc3ccccc23)CC1 [Example 33, 1-(4-ethylpiperazin-1-yl)-3-[4-(3-hydroxypropyl)-3-methoxyphenyl]isoquinoline hydrochloride] | – | 10.9 | 758 | 7.9 |
| CCN1CCN(c2nc(-c3ccc(OCCO)cc3)cc3ccccc23)CC1 [Example 36, 1-(4-ethylpiperazin-1-yl)-3-[4-(2-hydroxyethoxy)phenyl]isoquinoline dihydrochloride] | – | 3.9 | 1220 | 18.8 |
| CCN1CCN(c2nc(-c3ccc(OCCOC)cc3)cc3ccccc23)CC1 [Example 42, 1-(4-ethylpiperazin-1-yl)-3-[4-(2-methoxyethoxy)phenyl]isoquinoline dihydrochloride] | – | 4.4 | 2450 | 33.1 |
| CCN1CCN(c2nc(-c3ccc(OCCF)cc3)cc3ccccc23)CC1 [Example 45, 1-(4-Ethylpiperazin-1-Yl)-3-[4-(2-Fluoroethoxy)Phenyl]Isoquinoline Dihydrochloride] | – | 1.1 | 1220 | 45 |
| CCN1CCN(c2nc(-c3ccc(OCCC#N)cc3)cc3ccccc23)CC1 [Example 52, 3-[4-(2-Cyanoethoxy)Phenyl]-1-(4-Ethylpiperazin-1-Yl)Isoquinoline Hydrochloride] | – | 0.6 | 555 | 23.5 |
| CCCNC(=O)c1ccc(-c2cc3ccccc3c(N3CCN(CC)CC3)n2)cc1 [Example 63, 1-(4-Ethylpiperazin-1-Yl)-3-(4-N-Propylaminocarbonylphenyl)Isoquinoline Hydrochloride] | – | 0.84 | 252 | 18.1 |
| CCCC(=O)Nc1ccc(-c2cc3ccccc3c(N3CCN(CC)CC3)n2)cc1 [Example 70, 3-(4-Propylcarbonylaminophenyl]-1-(4-Ethylpiperazin-1-Yl)Isoquinoline Hydrochloride] | – | 5.5 | 1260 | 23.3 |
| CCCCS(=O)(=O)Nc1ccc(-c2cc3ccccc3c(N3CCN(CC)CC3)n2)cc1 [Example 73, 3-(4-Butylsulfonylaminophenyl)-1-(4-Ethylpiperazin-1-Yl)Isoquinoline Hydrochloride] | – | 3.3 | 699 | 13 |
| CCN1CCN(c2nc(-c3ccccn3)cc3ccccc23)CC1 [Example 123, 1-(4-Ethylpiperazin-1-yl)-3-(2-Pyridyl)Isoquinoline Dihydrochloride] | – | 29.1 | 553 | 34 |
| CCN1CCN(c2nc(-c3ccc(OCCOC)nc3)cc3ccccc23)CC1 [Example 126, 1-(1-Ethylpiperazin-4-yl)-3-[2-(2-Methoxyethoxy)Pyridin-5-yl]Isoquinoline] | – | 5.7 | 382 | 26.4 |

| Compound | melting point | Ki (serotonin 2 receptor) [nM] | Ki (α1 adrenalin receptor) [nM] | Ki (serotonin 1A receptor) [nM] |
| --- | --- | --- | --- | --- |
| CCN1CCN(c2nc(-c3ccc(CCCOC)nc3)cc3ccccc23)CC1 [Example 139, 1-(1-Ethylpiperazin-4-yl)-3-[2-(3-Methoxypropyl)Pyridin-5-yl]Isoquinoline Oxalate] | – | 5.1 | 374 | 2.7 |
| CCN1CCN(c2nc(-c3ccc(N4CCOCC4)cc3)cc3ccccc23)CC1 [Example 160, 3-[4-(4-morpholinyl)phenyl]-1-(4-ethylpiperazin-1-yl)isoquinoline dihydrochloride] | – | 0.7 | 536 | 22.2 |
| CCN1CCN(c2nc(-c3cnc(N4CCOCC4)s3)cc3ccccc23)CC1 [Example 173, 1-(1-ethylpiperazin-4-yl)-3-[2-(4-morpholinyl)-5-thiazolyl]isoquinoline dihydrochloride] | – | 4.8 | 284 | 3.9 |
| CCN1CCN(c2nc(C#Cc3ccccn3)cc3ccccc23)CC1 [Example 179, 1-(1-Ethylpiperazin-4-Yl)-3-(2-Pyridyl)Ethynylisoquinoline Oxalate] | – | 0.4 | 208 | 5.3 |
| CCN1CCN(c2nc(C#CCc3ccccc3)cc3ccccc23)CC1 [Example 181, 1-(1-Ethylpiperazin-4-Yl)-3-(3-Phenyl-1-Propynyl)Isoquinoline Oxalate] | – | 6.7 | 920 | 17.9 |
| CCN1CCN(c2nc(C#Cc3ccc(OCCO)cc3)cc3ccccc23)CC1 [Example 183, 1-(1-Ethylpiperazin-4-Yl]-3-[4-(2-Hydroxyethoxy)Phenylethynyl]Isoquinoline Dihydrochloride] | – | 3.36 | 577 | 14.1 |
| CCN1CCN(c2nc(C#Cc3ccccc3OCCO)cc3ccccc23)CC1 [Example 187, 1-(1-Ethylpiperazin-4-Yl)-3-[2-(2-Hydroxyethoxylphenyl]Ethynylisoquinoline Oxalate] | – | 2.53 | 969 | 9.81 |
| CCN1CCN(c2nc(/C=C/c3ccccc3S(C)(=O)=O)cc3ccccc23)CC1.Cl [Example 202, 3-[(E)-2-(2-Methylsulfonylphenyl)Ethenyl]-1-(4-Ethylpiperazin-1-Yl)Isoquinoline Hydrochloride] | 146 to 149 °C | 2.22 | > 2000 | 14.6 |
| CCN1CCN(c2nc(NCc3ccc(OC)cc3)cc3ccccc23)CC1 [Example 220, 1-(1-ethylpiperazin-4-yl)-3-(4-methoxybenzylamino)isoquinoline oxalate] | – | 2.01 | 3800 | 0.53 |
| CCN1CCN(c2nc(-c3ccc(OCCO)cc3)cc3ccsc23)CC1 [Example 259, 7-(4-ethylpiperazin-1-yl)-5-(4-hydroxyethoxyphenyl)thieno[2,3-c]pyridine Hydrochloride] | – | 18.9 | 405 | 9.26 |
| CCN1CCN(c2nc(-c3ccc(C(C)O)cc3)cc3sccc23)CC1 (stereo not drawn) [Example 281, 4-(4-ethylpiperazin-1-yl)-6-[4-(1-hydroxyethyl)phenyl]thieno[3,2-c]pyridine oxalate] | – | 16.9 | 345 | 15 |
| CCN1CCN(c2nc(-c3ccc(CCC(C)O)cc3)cc3ccoc23)CC1 (stereo not drawn) [Example 300, 7-(1-ethylpiperazin-4-yl)-5-[4-(3-hydroxybutyl)phenyl]furo[2,3-c]pyridine dihydrochloride] | – | 9.06 | > 2000 | 0.49 |
| CCN1CCN(c2nc(-c3ccc(OCCCO)cc3)cc3ccccc23)CC1.Cl.Cl [Example 331, 1-(4-ethylpiperazin-1-yl)-3-[4-(3-hydroxypropoxy)phenyl]isoquinoline dihydrochloride] | 112 to 113 °C (dec.) | 5.9 | 722 | 23.6 |
| CCN1CCN(c2nc(-c3ccc4c(c3)CC(CO)C4)cc3ccccc23)CC1 (stereo not drawn) [Example 393, 1-(4-Ethylpiperazin-1-yl)-3-(2-Hydroxymethylindan-5-yl)Isoquinoline Dihydrochloride] | – | 1.8 | 242 | 13.1 |
| CCN1CCN(c2nc(-c3ccc(CCC(C)(C)O)c(F)c3)cc3ccccc23)CC1 [Example 416, 1-(4-ethylpiperazin-1-yl)-3-[4-(3-hydroxy-3-methylbutyl)-3-fluorophenyl]isoquinoline] | – | 0.7 | 174 | 31.2 |
